Assay results from ChEMBL document CHEMBL1909046, “DrugMatrix in vitro pharmacology data”.
pIC50, pKi: −log10 of the molar value.

Key:
[1] = target: Beta-2 adrenergic receptor (Homo sapiens, UniProt P07550); assay: DRUGMATRIX: Adrenergic beta2 radioligand binding (ligand: [3H] CGP-12177); assay type: cell membranes, CHO, Membrane; conditions: Not Active = under 50% inhibition at 10 µM; for IC50: cho
[2] = target: Sodium-dependent noradrenaline transporter (Homo sapiens, UniProt P23975); assay: DRUGMATRIX: Norepinephrine Transporter radioligand binding (ligand: [125I] RTI-55); assay type: cell membranes, MDCK, Membrane; conditions: Not Active = under 50% inhibition at 10 µM; for IC50: mdck; for pIC50: read-out: IC50; for pKi: read-out: Ki
Carbonic anhydrase 2 = Carbonic anhydrase 2 (Homo sapiens, UniProt P00918); assay: DRUGMATRIX: Carbonic Anhydrase II enzyme inhibition (substrate: 4-Nitrophenyl acetate (4-NPA)); assay type: tissue-based, Erythrocyte; conditions: erythrocyte; Not Active = under 50% inhibition at 10 µM
[3] = target: T1, Amine oxidase [flavin-containing] A (Homo sapiens, UniProt P21397); assay: DRUGMATRIX: Monoamine Oxidase MAO-A enzyme inhibition (substrate: Kynuramine); set-up: species or system BTI-TN-5B1-4; conditions: bti-tn-5b1-4; Not Active = under 50% inhibition at 10 µM
T1 sequence (P21397 whole entry): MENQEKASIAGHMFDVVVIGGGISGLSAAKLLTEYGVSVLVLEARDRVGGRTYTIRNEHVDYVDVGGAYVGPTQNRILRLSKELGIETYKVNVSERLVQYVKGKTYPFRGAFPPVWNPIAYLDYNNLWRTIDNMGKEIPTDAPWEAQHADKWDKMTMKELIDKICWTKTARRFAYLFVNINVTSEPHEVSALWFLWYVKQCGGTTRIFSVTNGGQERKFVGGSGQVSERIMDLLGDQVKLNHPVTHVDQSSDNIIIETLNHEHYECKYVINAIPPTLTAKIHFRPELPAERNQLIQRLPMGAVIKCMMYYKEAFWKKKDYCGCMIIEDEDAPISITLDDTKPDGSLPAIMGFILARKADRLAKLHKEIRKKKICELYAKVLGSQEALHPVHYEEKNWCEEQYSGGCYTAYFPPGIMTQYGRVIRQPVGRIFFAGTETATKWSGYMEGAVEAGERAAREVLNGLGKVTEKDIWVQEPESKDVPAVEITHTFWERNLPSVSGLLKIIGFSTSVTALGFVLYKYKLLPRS

[4] = DRUGMATRIX: Phosphodiesterase PDE3 enzyme inhibition (substrate: [3H]cAMP + cAMP); assay type: tissue-based, Homo sapiens; conditions: platelet, Not Active = under 50% inhibition at 10 µM

Sequence of Beta-2 adrenergic receptor (P07550 whole entry): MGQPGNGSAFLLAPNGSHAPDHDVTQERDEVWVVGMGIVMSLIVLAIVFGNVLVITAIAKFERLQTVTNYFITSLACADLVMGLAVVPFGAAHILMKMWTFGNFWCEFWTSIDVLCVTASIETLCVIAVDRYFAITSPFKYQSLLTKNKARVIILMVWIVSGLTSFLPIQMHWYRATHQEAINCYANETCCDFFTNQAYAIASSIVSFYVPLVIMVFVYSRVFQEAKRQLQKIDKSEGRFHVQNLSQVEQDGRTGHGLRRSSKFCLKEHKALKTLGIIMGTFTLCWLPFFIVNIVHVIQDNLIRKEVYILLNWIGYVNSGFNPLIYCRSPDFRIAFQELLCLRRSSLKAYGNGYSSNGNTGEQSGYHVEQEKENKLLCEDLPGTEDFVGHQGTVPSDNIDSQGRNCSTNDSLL
Sequence of Sodium-dependent noradrenaline transporter (P23975 whole entry): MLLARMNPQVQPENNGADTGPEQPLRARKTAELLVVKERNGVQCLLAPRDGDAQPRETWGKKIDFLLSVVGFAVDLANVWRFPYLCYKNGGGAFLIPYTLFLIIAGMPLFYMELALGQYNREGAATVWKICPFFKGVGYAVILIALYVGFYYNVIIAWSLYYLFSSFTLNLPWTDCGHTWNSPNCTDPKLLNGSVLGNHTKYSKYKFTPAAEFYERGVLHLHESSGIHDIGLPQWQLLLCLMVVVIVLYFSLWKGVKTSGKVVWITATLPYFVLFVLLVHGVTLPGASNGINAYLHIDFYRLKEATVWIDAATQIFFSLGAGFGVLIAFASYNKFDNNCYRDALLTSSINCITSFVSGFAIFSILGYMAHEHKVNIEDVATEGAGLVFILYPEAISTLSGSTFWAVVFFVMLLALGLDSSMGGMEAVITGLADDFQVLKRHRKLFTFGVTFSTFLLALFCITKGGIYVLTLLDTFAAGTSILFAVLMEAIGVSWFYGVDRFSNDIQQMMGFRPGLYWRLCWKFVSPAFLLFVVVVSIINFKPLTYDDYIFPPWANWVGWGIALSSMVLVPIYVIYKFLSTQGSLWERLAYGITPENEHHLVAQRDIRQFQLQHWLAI

Structure (SMILES) | IC50 [1] | IC50 [2] | IC50 (Carbonic anhydrase 2) | IC50 [3] | IC50 [4] | Ki [4] | pIC50 [2] | pKi [2] | pIC50 ([1]; read-out: IC50) | pKi ([1]; read-out: Ki) | pIC50 ([4]; read-out: IC50)
O=C(O)c1cc(-c2ccc(F)cc2F)ccc1O [DIFLUNISAL] | Not Active | Not Active | Not Active | Not Active | Not Active | Not Active | – | – | – | – | –
CCn1cc(C(=O)O)c(=O)c2cc(F)c(N3CCNC(C)C3)c(F)c21 (configuration not stated) [LOMEFLOXACIN] | Not Active | Not Active | Not Active | Not Active | Not Active | Not Active | – | – | – | – | –
CN(C)C(=O)Oc1cccc([N+](C)(C)C)c1.[Br-] [NEOSTIGMINE BROMIDE] | Not Active | Not Active | Not Active | Not Active | Not Active | Not Active | – | – | – | – | –
CN1CCCC(CN2c3ccccc3Sc3ccccc32)C1 (configuration not stated) [MEPAZINE] | Not Active | – | Not Active | Not Active | Not Active | Not Active | 5.73 | 5.73 | – | – | –
ClC(Cl)(Cl)Cl [CARBON TETRACHLORIDE] | Not Active | Not Active | Not Active | Not Active | Not Active | Not Active | – | – | – | – | –
CCN(CC)CCCC(C)Nc1c2ccc(Cl)cc2nc2ccc(OC)cc12 (configuration not stated) [QUINACRINE] | Not Active | – | Not Active | Not Active | Not Active | Not Active | 5.54 | 5.54 | – | – | –
CC[C@H]1[C@@H]2C[C@H]3[C@@H]4N(C)c5ccccc5[C@]45C[C@@H]([C@@H]2[C@H]5O)N3[C@@H]1O [AJMALINE] | Not Active | Not Active | Not Active | Not Active | Not Active | Not Active | – | – | – | – | –
C[C@H]1[C@H](NC(=O)/C(=N\OC(C)(C)C(=O)O)c2csc(N)n2)C(=O)N1S(=O)(=O)O [AZTREONAM] | Not Active | Not Active | Not Active | Not Active | Not Active | Not Active | – | – | – | – | –
CO/N=C(\C(=O)N[C@@H]1C(=O)N2C(C(=O)O)=C(COC(C)=O)CS[C@H]12)c1csc(N)n1 [CEFOTAXIME] | Not Active | Not Active | Not Active | Not Active | Not Active | Not Active | – | – | – | – | –
CC(C)c1c(C(=O)Nc2ccccc2)c(-c2ccccc2)c(-c2ccc(F)cc2)n1CC[C@@H](O)C[C@@H](O)CC(=O)O [ATORVASTATIN] | Not Active | Not Active | Not Active | Not Active | Not Active | Not Active | – | – | – | – | –
CC(C)C[C@H]1C(=O)N2CCC[C@H]2[C@]2(O)O[C@](NC(=O)[C@@H]3C=C4c5cccc6[nH]cc(c56)C[C@H]4N(C)C3)(C(C)C)C(=O)N12 [ERGOCRYPTINE] | Not Active | Not Active | Not Active | Not Active | Not Active | Not Active | – | – | – | – | –
CCN(C(C)=O)c1cccc(-c2ccnc3c(C#N)cnn23)c1 [ZALEPLON] | Not Active | Not Active | Not Active | Not Active | Not Active | Not Active | – | – | – | – | –
N[C@@H](Cn1ccc(=O)c(O)c1)C(=O)O [L-MIMOSINE] | Not Active | Not Active | Not Active | Not Active | Not Active | Not Active | – | – | – | – | –
Nc1cc(-c2ccncc2)c[nH]c1=O [INAMRINONE] | Not Active | Not Active | Not Active | Not Active | Not Active | Not Active | – | – | – | – | –
NC(=O)c1cccc(N)c1 [3-AMINOBENZAMIDE] | Not Active | Not Active | Not Active | Not Active | Not Active | Not Active | – | – | – | – | –
NC(=O)c1cccnc1 [NIACINAMIDE] | Not Active | Not Active | Not Active | Not Active | Not Active | Not Active | – | – | – | – | –
CCC1=C(C)CN(C(=O)NCCc2ccc(S(=O)(=O)NC(=O)N[C@H]3CC[C@H](C)CC3)cc2)C1=O [GLIMEPIRIDE] | Not Active | Not Active | Not Active | Not Active | Not Active | Not Active | – | – | – | – | –
CC(C)NCC(O)c1ccccc1Cl (configuration not stated) [CLORPRENALINE] | – | Not Active | Not Active | Not Active | Not Active | Not Active | – | – | 5.70 | 5.86 | –
CC(=O)OCC(=O)[C@@]12OC(C)(C)O[C@@H]1C[C@H]1[C@@H]3C[C@H](F)C4=CC(=O)C=C[C@]4(C)[C@@]3(F)[C@@H](O)C[C@@]12C [FLUOCINONIDE] | Not Active | Not Active | Not Active | Not Active | Not Active | Not Active | – | – | – | – | –
COc1cccc2c1C(=O)c1c(O)c3c(c(O)c1C2=O)C[C@@](O)(C(C)=O)C[C@@H]3O[C@H]1C[C@H](N)[C@H](O)[C@H](C)O1 [DAUNORUBICIN] | Not Active | Not Active | Not Active | Not Active | Not Active | Not Active | – | – | – | – | –
COc1ccccc1N | Not Active | Not Active | Not Active | Not Active | Not Active | Not Active | – | – | – | – | –
CC[C@]1(O)C[C@@H]2CN(CCc3c([nH]c4ccccc34)[C@@](C(=O)OC)(c3cc4c(cc3OC)N(C)[C@H]3[C@@](O)(C(N)=O)[C@H](O)[C@]5(CC)C=CCN6CC[C@]43[C@@H]65)C2)C1 [VINDESINE] | Not Active | Not Active | Not Active | Not Active | Not Active | Not Active | – | – | – | – | –
CCOc1nc2cccc(C(=O)O)c2n1Cc1ccc(-c2ccccc2-c2nnn[nH]2)cc1 | Not Active | – | Not Active | Not Active | Not Active | Not Active | 5.51 | 5.52 | – | – | –
C[S+](C)[O-] [DIMETHYL SULFOXIDE] | Not Active | Not Active | Not Active | Not Active | Not Active | Not Active | – | – | – | – | –
C[C@@H]1O[C@@H](O[C@H]2C[C@@H](O)[C@]3(CO)[C@H]4[C@H](O)C[C@]5(C)[C@@H](C6=CC(=O)OC6)CC[C@]5(O)[C@@H]4CC[C@]3(O)C2)[C@H](O)[C@H](O)[C@H]1O [OUABAIN] | Not Active | – | Not Active | Not Active | Not Active | Not Active | – | – | – | – | –
O=c1c(-c2ccc(O)cc2)coc2cc(O)cc(O)c12 [GENISTEIN] | Not Active | Not Active | Not Active | – | – | – | – | – | – | – | 4.96
NNCCc1ccccc1 [PHENELZINE] | Not Active | Not Active | Not Active | – | Not Active | Not Active | – | – | – | – | –
C[C@H]1COc2c(N3CCN(C)CC3)c(F)cc3c(=O)c(C(=O)O)cn1c23.C[C@H]1COc2c(N3CCN(C)CC3)c(F)cc3c(=O)c(C(=O)O)cn1c23.O [LEVOFLOXACIN] | Not Active | – | Not Active | Not Active | Not Active | Not Active | – | – | – | – | –
CN(C)CCC=C1c2ccccc2CCc2ccccc21 [AMITRIPTYLINE] | Not Active | – | Not Active | Not Active | Not Active | Not Active | – | – | – | – | –
